Laboratory results taken from ChEMBL document CHEMBL4406798, “A novel finding of nalbuphine-6-glucuronide, an active opiate metabolite, possessing potent antinociceptive effects: Synthesis and biological evaluation” (2019).

Legend:
Rattus norvegicus [1] = assay: Antinociceptive activity in Sprague-Dawley rat model of thermal-induced nociception assessed as maximum possible analgesia at 50 mg/kg, ip measured over 2.5 hrs by cold-ethanol tail-flick test relative to control; type: functional
Rattus norvegicus [2] = assay: Antinociceptive activity in Sprague-Dawley rat model of thermal-induced nociception assessed as duration above 50% maximum possible analgesia at 1 mg/kg administered as intra-cisternal injection measured over 2.5 hrs by cold-ethanol tail-flick test; type: functional
Rattus norvegicus [3] = assay: Antinociceptive activity in Sprague-Dawley rat model of paw mechanical allodynia assessed as maximum possible analgesia at 50 mg/kg, ip by Randall-Selitto test relative to control; type: functional
Rattus norvegicus [4] = assay: Antinociceptive activity in Sprague-Dawley rat model of thermal-induced nociception assessed as maximum possible analgesia at 1 mg/kg administered as intra-cisternal injection measured over 2.5 hrs by cold-ethanol tail-flick test relative to control; type: functional
Rattus norvegicus [5] = assay: Antinociceptive activity in Sprague-Dawley rat model of thermal-induced nociception assessed as reduction in tail-flick response by measuring AUC (0 to t) of tail flick test at 1 mg/kg administered as intra-cisternal injection measured over 2.5 hrs by cold-ethanol tail-flick test; type: functional, organism-based; set-up: dose 1 mg/kg, time < 2.5 hr
Rattus norvegicus [6] = assay: Antinociceptive activity in Sprague-Dawley rat model of paw mechanical allodynia assessed as reduction in paw pressure by measuring AUC (0 to t) of paw pressure test at 1 mg/kg administered as intra-cisternal injection by Randall-Selitto test; type: functional, organism-based
Rattus norvegicus [7] = assay: Antinociceptive activity in Sprague-Dawley rat model of thermal-induced nociception assessed as reduction in tail-flick response by measuring AUC (0 to t) of tail flick test at 50 mg/kg, ip measured over 2.5 hrs by cold-ethanol tail-flick test; type: functional, organism-based; set-up: time < 2.5 hr, dose 50 mg/kg
Rattus norvegicus [8] = assay: Antinociceptive activity in Sprague-Dawley rat model of paw mechanical allodynia assessed as reduction in paw pressure by measuring AUC (0 to t) of paw pressure test at 50 mg/kg, ip by Randall-Selitto test; type: functional, organism-based
Rattus norvegicus [9] = assay: Antinociceptive activity in Sprague-Dawley rat model of paw mechanical allodynia assessed as maximum possible analgesia at 1 mg/kg administered as intra-cisternal injection by Randall-Selitto test relative to control; type: functional
Rattus norvegicus [10] = assay: Antinociceptive activity in Sprague-Dawley rat model of paw mechanical allodynia assessed as duration above 50% maximum possible analgesia at 50 mg/kg, ip by Randall-Selitto test; type: functional
Rattus norvegicus [11] = assay: Antinociceptive activity in Sprague-Dawley rat model of thermal-induced nociception assessed as duration above 50% maximum possible analgesia at 50 mg/kg, ip measured over 2.5 hrs by cold-ethanol tail-flick test; type: functional
Rattus norvegicus [12] = assay: Antinociceptive activity in Sprague-Dawley rat model of paw mechanical allodynia assessed as duration above 50% maximum possible analgesia at 1 mg/kg administered as intra-cisternal injection by Randall-Selitto test; type: functional
Rattus norvegicus [13] = species: Rattus norvegicus; assay: Ratio of AUC for test compound to AUC for nalbuphine for antinociceptive activity in Sprague-Dawley rat model by Randall-Selitto test; type: functional
Rattus norvegicus [14] = species: Rattus norvegicus; assay: Ratio of AUC for test compound to AUC for nalbuphine for antinociceptive activity in Sprague-Dawley rat model by cold-ethanol tail-flick test; type: functional

With `O=C(O)[C@H]1O[C@@H](Oc2ccc3c4c2O[C@H]2[C@@H](O)CC[C@@]5(O)[C@@H](C3)N(CC3CCC3)CC[C@]425)[C@H](O)[C@@H](O)[C@@H]1O` the Activity (Rattus norvegicus [1]) was 19.3%, the Time (Rattus norvegicus [2]) was 1.36 h and the Activity (Rattus norvegicus [3]) was 17.7%. It also gave an Activity (Rattus norvegicus [4]) of 22.3%, an AUC (Rattus norvegicus [5]) of 5.4 hr.sec and an AUC (Rattus norvegicus [6]) of 23.5 g·h. It also gave an AUC (Rattus norvegicus [7]) of 5.8 hr.sec, an AUC (Rattus norvegicus [8]) of 73.4 g·h and an Activity (Rattus norvegicus [9]) of 7.3%.
With `Oc1ccc2c3c1O[C@H]1[C@@H](O)CC[C@@]4(O)[C@@H](C2)N(CC2CCC2)CC[C@]314` [NALBUPHINE] the Activity (Rattus norvegicus [1]) was 43.6%, the Time (Rattus norvegicus [10]) was 0.1 h and the Time (Rattus norvegicus [2]) was 0.07 h. For the same molecule, the Activity (Rattus norvegicus [3]) was 37.9%, the Activity (Rattus norvegicus [4]) was 38.4% and the AUC (Rattus norvegicus [5]) was 11.3 hr.sec. The Time (Rattus norvegicus [11]) was 0.15 h, the AUC (Rattus norvegicus [6]) was 176 g·h and the AUC (Rattus norvegicus [7]) was 16.9 hr.sec. The AUC (Rattus norvegicus [8]) was 169 g·h, the Activity (Rattus norvegicus [9]) was 48% and the Time (Rattus norvegicus [12]) was 0.13 h.
Work on `O=C(O)[C@H]1O[C@@H](O[C@H]2CC[C@@]3(O)[C@H]4Cc5ccc(O)c6c5[C@@]3(CCN4CC3CCC3)[C@H]2O6)[C@H](O)[C@@H](O)[C@@H]1O` yielded an Activity (Rattus norvegicus [1]) of 22.7%, an Activity (Rattus norvegicus [3]) of 29.6% and an Activity (Rattus norvegicus [4]) of 96.5%. It also gave an AUC (Rattus norvegicus [5]) of 40.3 hr.sec, an AUC (Rattus norvegicus [6]) of 510 g·h and a Ratio (Rattus norvegicus [13]) of 2.8. It also gave an AUC (Rattus norvegicus [7]) of 5.4 hr.sec, an AUC (Rattus norvegicus [8]) of 158 g·h and an Activity (Rattus norvegicus [9]) of 95.1%. The Time (Rattus norvegicus [12]) was 91 h and the Ratio (Rattus norvegicus [14]) was 3.5.
